According to patent US20250332173A1, “COMPOUNDS AND METHODS FOR MODULATING NUCLEIC ACID SPLICING” (REMIX THERAPEUTICS INC., priority 2021, published 2025):
Where two headings read alike, the source gives them in different places.

How the values were obtained:
HTT mRNA = experiment: RT-qPCR splicing assay, HTT canonical junction (CJ) and alternative junction (AJ) mRNA; type: cell-based, human; details: Homo sapiens; for AC50: increase in HTT alternative junction (AJ) mRNA, read-out: HTT AJ AC50
Outline: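 24 h treatment, 37 °C/5% CO2; A673 or K562; 11-pt 3-fold series, top 10 uM final; DMSO ≤0.25%. Cell lysis with DNase I, then 1-step RT-qPCR. Housekeeping normalization: PPIA (A673), GAPDH or GUSB (K562).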

SMN2 mRNA = experiment: RT-qPCR splicing assay, SMN2 canonical junction (CJ) mRNA; type: cell-based, human; details: Homo sapiens; Table 5 panel; canonical junction qPCR; compound concentration having 50% response in CJ decrease; read-out: SMN2 IC50 (decrease in CJ mRNA levels)
Outline: (§1)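 Cells are plated (A673 allowed 24 h to adhere), dosed with an 11-point 3-fold series topping at 10 uM final, and incubated 24 h at 37 °C. Lysis is followed by cDNA synthesis and qPCR of the CJ transcript, normalized to a housekeeping gene.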

Target C = experiment: RT-qPCR splicing assay panel, Target C canonical junction (CJ) mRNA; type: cell-based, human; details: Homo sapiens; Table 5 panel; canonical junction qPCR; compound concentration having 50% response in CJ decrease; read-out: Target C IC50 (decrease in CJ mRNA levels)
Outline: as §1

[1] = system: K562 (human chronic myelogenous leukemia) cells; experiment: Cell Titer Glo 2.0 cell viability assay; type: cell-based; details: Homo sapiens, K562, 72 h, K562 cells, 72 hours, Cell Titer Glo 2.0; read-out: K562 GI50
[2] = decrease in HTT canonical junction (CJ) mRNA, RT-qPCR, read-out: HTT CJ IC50
[3] = Table 5 panel, canonical junction qPCR, compound concentration having 50% response in CJ decrease, read-out: HTT IC50 (decrease in CJ mRNA levels)

SMILES | IC50 (HTT mRNA; [2]) [nM] | IC50 (HTT mRNA; [3]) [nM] | IC50 (SMN2 mRNA) [nM] | IC50 (Target C) [nM] | GI50 [1] [nM] | AC50 (HTT mRNA; RT-qPCR) [nM]
Cc1cn2nc(-c3ccc4c(=O)n([C@H]5CCNC[C@H]5F)cnc4c3)cc(C)c2n1 [Compound 372] | 100 to 1000 | 100 to 1000 | < 100 | 1000 to 10000 | 1000 to 10000 | 100 to 1000
Cc1cc(-c2ccc3c(=O)n(C4CCNC5(COC5)C4)cnc3c2)cc2cn(C)nc12 (stereo not drawn) [Compound 375] | 1000 to 10000 | 1000 to 10000 | 1000 to 10000 | 1000 to 10000 | 1000 to 10000 | 1000 to 10000
Cc1cc(-c2ccc3c(=O)n([C@@H]4CCNC[C@H]4F)ncc3c2)cc2cn(C)nc12 [Compound 378] | 1000 to 10000 | 1000 to 10000 | 100 to 1000 | 1000 to 10000 | 1000 to 10000 | 1000 to 10000
Cc1cn2nc(-c3ccc4c(=O)n([C@@H]5CCNC[C@H]5F)ncc4c3)cc(C)c2n1 [Compound 379] | 100 to 1000 | 100 to 1000 | 100 to 1000 | 1000 to 10000 | 1000 to 10000 | 100 to 1000
Cc1cn2nc(-c3ccc4c(=O)n(C5CCNCC5)cc(C)c4c3)cc(C)c2n1 [Compound 381, 6-{2,8-dimethylimidazo[1,2-b]pyridazin-6-yl}-4-methyl-2-(piperidin-4-yl)isoquinolin-1-one] | 100 to 1000 | < 100 | < 100 | 1000 to 10000 | 100 to 1000 | < 100
Cc1cn2cc(-c3cc(F)c4c(=O)n(C5CCNCC5)ccc4c3)cc(C#N)c2n1 [Compound 383, 6-[8-fluoro-1-oxo-2-(piperidin-4-yl)isoquinolin-6-yl]-2-methylimidazo[1,2-a]pyridine-8-carbonitrile] | 1000 to 10000 | 100 to 1000 | < 100 | 1000 to 10000 | 100 to 1000 | 100 to 1000
CC(=O)c1cc(-c2cc(F)c3c(=O)n(C4CCNCC4)ccc3c2)cn2cc(C)nc12 [Compound 393, 6-{8-acetyl-2-methylimidazo[1,2-a]pyridin-6-yl}-8-fluoro-2-(piperidin-4-yl)isoquinolin-1-one 2,2,2-trifluoroacetate] | 1000 to 10000 | 100 to 1000 | < 100 | 1000 to 10000 | 100 to 1000 | 100 to 1000
COc1cc(-c2cc(C)c3nc(C)cn3n2)cc2ccn(C3CCNCC3)c(=O)c12 [Compound 399, 6-{2,8-dimethylimidazo[1,2-b]pyridazin-6-yl}-8-methoxy-2-(piperidin-4-yl)isoquinolin-1-one] | 100 to 1000 | 100 to 1000 | < 100 | 1000 to 10000 | 100 to 1000 | 100 to 1000
Cc1cn2nc(-c3cc(F)c4c(=O)n(C5CCN(C)CC5)ccc4c3)cc(C)c2n1 [Compound 400, 6-(2,8-dimethylimidazo[1,2-b]pyridazin-6-yl)-8-fluoro-2-(1-methylpiperidin-4-yl)isoquinolin-1(2H)-one] | < 100 | < 100 | < 100 | 100 to 1000 | 100 to 1000 | < 100
CCN1CCC(n2ccc3cc(-c4cc(C)c5nc(C)cn5n4)ccc3c2=O)CC1 [Compound 402, 6-{2,8-dimethylimidazo[1,2-b]pyridazin-6-yl}-2-(1-ethylpiperidin-4-yl)isoquinolin-1-one] | 100 to 1000 | 100 to 1000 | < 100 | 100 to 1000 | 100 to 1000 | 100 to 1000
Cc1cn2cc(-c3ccc4c(=O)n([C@H]5CCCNC5)ccc4c3)cc(F)c2n1 [Compound 404, 6-{8-fluoro-2-methylimidazo[1,2-a]pyridin-6-yl}-2-[(3S)-piperidin-3-yl]isoquinolin-1-one] | 1000 to 10000 | 1000 to 10000 | < 100 | > 10000 | 1000 to 10000 | 1000 to 10000
Cc1cn2cc(-c3cc(S(C)(=O)=O)c4c(=O)n(C5CCNCC5)ccc4c3)cc(F)c2n1 [Compound 409, 6-(8-fluoro-2-methylimidazo[1,2-a]pyridin-6-yl)-8-(methylsulfonyl)-2-(piperidin-4-yl)isoquinolin-1(2H)-one] | > 10000 | > 10000 | > 10000 | > 10000 | > 10000 | > 10000
Cn1cc2cc(-c3cc(F)c4c(=O)n(C5CCNC6(CC6)C5)ccc4c3)cc(F)c2n1 (stereo not drawn) [Compound 412] | < 100 | < 100 | < 100 | < 100 | < 100 | < 100
Cc1cn2cc(-c3cc(F)c4c(=O)n(C5CCNC6(CC6)C5)ccc4c3)cc(Cl)c2n1 (stereo not drawn) [Compound 413, 2-{4-azaspiro[2.5]octan-7-yl}-6-{8-chloro-2-methylimidazo[1,2-a]pyridin-6-yl}-8-fluoroisoquinolin-1-one] | < 100 | < 100 | < 100 | 100 to 1000 | < 100 | < 100

More lines, main results first:

IC50 (HTT mRNA; [2]) [nM] | IC50 (HTT mRNA; [3]) [nM] | IC50 (SMN2 mRNA) [nM] | IC50 (Target C) [nM] | GI50 [1] [nM] | SMILES | AC50 (HTT mRNA; RT-qPCR) [nM]
< 100 | < 100 | < 100 | 100 to 1000 | < 100 | Cc1cn2cc(-c3cc(F)c4c(=O)n(C5CCNCC5)ccc4c3)cc(F)c2n1 [Compound 370] | < 100
< 100 | < 100 | < 100 | < 100 | 100 to 1000 | Cc1cn2nc(-c3cc(F)c4c(=O)n(C5CCNC6(CC6)C5)ccc4c3)cc(C)c2n1 (stereo not drawn) [Compound 380, 6-(2,8-dimethylimidazo[1,2-b]pyridazin-6-yl)-8-fluoro-2-(4-azaspiro[2.5]octan-7-yl)isoquinolin-1(2H)-one] | < 100
< 100 | < 100 | < 100 | 100 to 1000 | 100 to 1000 | Cc1cn2nc(-c3ccc4c(=O)n(C5CCNC6(CC6)C5)ccc4c3)cc(C)c2n1 (stereo not drawn) [Compound 384] | < 100
< 100 | < 100 | < 100 | 100 to 1000 | < 100 | Cc1cn2nc(-c3cc(C#N)c4c(=O)n(C5CCNC6(CC6)C5)ccc4c3)cc(C)c2n1 (stereo not drawn) [Compound 387] | < 100
< 100 | < 100 | < 100 | < 100 | < 100 | Cc1cn2nc(-c3cc(Cl)c4c(=O)n(C5CCNCC5)ccc4c3)cc(C)c2n1 [Compound 390, 8-chloro-6-{2,8-dimethylimidazo[1,2-b]pyridazin-6-yl}-2-(piperidin-4-yl)isoquinolin-1-one; trifluoroacetaldehyde] | < 100
< 100 | < 100 | < 100 | < 100 | < 100 | Cc1cn2nc(-c3cc(O)c4c(=O)n(C5CCNCC5)ccc4c3)cc(C)c2n1 [Compound 391, 6-(2,8-dimethylimidazo[1,2-b]pyridazin-6-yl)-8-hydroxy-2-(piperidin-4-yl)isoquinolin-1(2H)-one] | < 100
< 100 | < 100 | < 100 | 100 to 1000 | < 100 | Cn1cc2cc(-c3cc(F)c4c(=O)n(C5CCNCC5)ccc4c3)cc(C#N)c2n1 [Compound 394, 5-(8-fluoro-1-oxo-2-(piperidin-4-yl)-1,2-dihydroisoquinolin-6-yl)-2-methyl-2H-indazole-7-carbonitrile] | < 100
